Reference: PubChem BioAssay AID1329 (NMMLSC, 2008)
The source made the active and inactive calls. How the calls were made is not given here.

Molecular target: Induced myeloid leukemia cell differentiation protein Mcl-1 (Homo sapiens) (UniProt Q07820)
Assay: modulators of Bim peptide binding to Mcl-1, dose response, biochemical, bead-based flow cytometry, multiplexed, human (AID 1329)
Details: Bim peptide-Mcl-1 binding, MCF

Chain of Induced myeloid leukemia cell differentiation protein Mcl-1 (Homo sapiens) (Q07820 whole entry, looked up): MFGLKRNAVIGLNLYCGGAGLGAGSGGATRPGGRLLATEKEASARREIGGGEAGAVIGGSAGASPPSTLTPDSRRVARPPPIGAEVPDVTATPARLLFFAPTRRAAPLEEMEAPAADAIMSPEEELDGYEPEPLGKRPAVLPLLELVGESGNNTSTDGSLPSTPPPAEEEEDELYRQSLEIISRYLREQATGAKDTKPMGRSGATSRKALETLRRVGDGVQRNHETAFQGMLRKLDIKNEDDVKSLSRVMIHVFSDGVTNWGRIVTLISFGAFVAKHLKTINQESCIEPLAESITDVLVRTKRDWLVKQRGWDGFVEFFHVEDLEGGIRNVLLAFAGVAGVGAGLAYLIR

SMILES	percent span
CC1(C(=O)N(CC(=O)NC2CCCC2)Cc2ccco2)CC(=O)N=C2C=CC=CN21 (stereo not drawn)	inactive
O=C(c1cnccn1)N1CCN(c2ccccc2F)CC1	inactive
CCOC(=O)CSC1=NC(=O)/C(=C\c2ccc(OC(C)=O)cc2)S1	inactive
COC(=O)c1sc(NC(=O)c2ccc(Cn3cc(Cl)cn3)o2)c(C#N)c1C	inactive
O=C(OCc1cnc(Cl)s1)c1cccc(Cl)c1Cl	inactive
O=C(C1=C(Nc2ccccc2)c2ccccc2S(=O)(=O)N1)c1ccccc1	inactive
O=C(CNC(=O)c1ccc(S(=O)(=O)N2CCCC2)cc1)N/N=C/c1ccc(Cl)cc1Cl	inactive
CC1(C)SC(=S)N(NC(=O)Nc2ccccc2)C1N(O)C(=O)Nc1cccc2ccccc12 (stereo not drawn)	inactive
O=C1NC(=O)C2(Cc3c(nc4ccccn4c3=O)N3CCCCCC32)C(=O)N1Cc1ccccc1 (stereo not drawn)	inactive
Cc1ccc(/C=N/N(C)C2=NS(=O)(=O)c3ccccc32)o1	inactive
O=[N+]([O-])c1ccc(N2CCN(c3ccc(O)cc3)CC2)c(Cl)c1	inactive
O=C(Nc1n[nH]c(C(F)(F)F)n1)C1CC1	inactive
Cc1onc(-c2ccccc2)c1C(=O)Nc1nnc(COc2ccc(Cl)cc2)s1	inactive
Cn1c(=O)c(C(=O)COC(=O)c2cc(-c3ccco3)nc3ccccc23)c(N)n(Cc2ccccc2)c1=O	inactive
O=C(CSc1nnc(Cc2ccccc2)o1)NCc1ccco1	inactive
Cc1ccc(C(=O)C(C(=O)/C=C/c2ccccc2)=C2SCCCS2)cc1	inactive
Cc1ccccc1-c1nc(-c2ccc(NC(=O)c3ccc4c(c3)OCO4)cc2)no1	inactive
C#CCOCCOCCOCCNc1nc(N2CCN(C(=O)[C@H](CCCCN)n3cc(CCCC)nn3)CC2)nc(N2CCN(C(=O)[C@H](Cc3ccc(O)cc3)n3cc(CCO)nn3)CC2)n1	inactive
OCCC1CN(Cc2nc3c(s2)CCCC3)CCN1Cc1ccsc1 (stereo not drawn)	inactive
CCc1cccc(NC(=O)COc2ccccc2)c1	inactive
O=C(Nc1ccc2nc(-c3ccco3)c(-c3ccco3)nc2c1)NC1CC1	inactive
Cc1ccnc(NS(=O)(=O)c2ccc(NC(=O)c3c(-c4ccccc4Cl)noc3C)cc2)n1	inactive
S=C(NCCc1ccccc1)NCCc1ccccc1	inactive
COc1ccc(NC(=O)Cc2c(F)cccc2Cl)c(OC)c1	inactive
Cc1[nH]c2ccccc2c1C(=O)COC(=O)c1c(-c2c(F)cccc2Cl)noc1C	inactive

SMILES	percent span
CC(=O)Nc1ccc(-n2cc(-c3ccccc3)[nH]c2=S)cc1	inactive
Cc1cc(NC(=O)CCCC(=O)N(CC(=O)NC2CCCCC2)c2ccccc2)no1	inactive
COc1cc(N2CCOCC2)ccc1C=C1C(=O)NC(=O)NC1=O	inactive
CSc1nnc2c3cc(C)ccc3n(Cc3ccccc3)c2n1	inactive
Cc1ccc(-c2cc(C(=O)Nc3ccccn3)c3ccccc3n2)o1	inactive
Cn1c(N)c(C(=O)COC(=O)c2cc(-c3ccco3)nc3ccccc23)c(=O)n(Cc2ccccc2)c1=O	inactive
O=C(Oc1ccc(-c2cnc3ccccc3n2)cc1)c1cccc([N+](=O)[O-])c1	inactive
CCOC(=O)CCCNC(=O)c1cncc(O)c1	inactive
CCOC(=O)c1cccc(Nc2ncnc3ccccc23)c1	inactive
Cc1cc(C)nc(SCc2cc(=O)c(OC(=O)c3cccc([N+](=O)[O-])c3)co2)n1	inactive
Cc1cc(C)c2c(N)c3cccc(C)c3nc2n1	inactive
S=C(Nc1ccccc1)N1CCn2cccc2C1c1cccnc1 (stereo not drawn)	inactive
COc1ccc(NC(=O)C2=C(C)NC(=O)NC2c2cccc(OC)c2OC)c(OC)c1 (stereo not drawn)	inactive
O=C(c1cc(=O)c2ccccc2o1)N1CCN(c2ccccc2F)CC1	inactive
O=C1NCCN1C(=O)N(c1ccccc1)c1ccccc1	inactive
Cc1cnnn1-c1ccc(C(=O)CCl)cc1	inactive
S=c1[nH]cc(-c2ccccc2)n1-c1ccccc1	inactive
CSc1ccccc1NC(=O)CN(C)CC(=O)Nc1ccc(N2CCOCC2)cc1	inactive
CCOC(=O)/C(=C\c1ccc(Cl)cc1)c1nc2sc(C)c(C)c2c(=O)[nH]1	inactive
COC(=O)CSc1nccc(-c2cccs2)n1	inactive
CCN1CCN(c2cc(C)c3cc(NC(=S)N4CCN(c5ccc(F)cc5)CC4)ccc3n2)CC1	inactive
CNC(=S)N/N=C/C1=CCC2CC1C2(C)C (stereo not drawn)	inactive
O=C(N/N=C/c1ccc(O)c(O)c1O)/C(=C/c1ccc([N+](=O)[O-])cc1)NC(=O)c1ccccc1	inactive
Cn1c(CNc2nc(-c3ccccc3)cs2)nnc1SCC(=O)N1CCc2ccccc21	inactive
CCN1/C(=C/c2ccc3cc(C)ccc3[n+]2CC)Sc2cc(C)c(C)cc21	inactive

SMILES	percent span
C#CCOCCOCCOCCNc1nc(N2CCN(C(=O)[C@H]([C@@H](C)CC)n3cc([C@@H](N)CC(C)C)nn3)CC2)nc(N2CCN(C(=O)[C@H](Cc3cc4ccccc4[nH]3)n3cc([C@@H](N)Cc4ccc(O)cc4)nn3)CC2)n1	inactive
Cc1ccc(S(=O)(=O)N(C)CC(=O)N2CCc3ccccc32)cc1	inactive
Cc1cc(-c2cc(-c3ccc(Cl)cc3)nc(N)c2C#N)co1	inactive
CN(CC(=O)O/N=C(\N)c1ccc([N+](=O)[O-])cc1)S(=O)(=O)c1ccccc1	inactive
COc1ccc(C2CN(C)CC2C(=O)c2ccc(F)cc2)cc1Cl (stereo not drawn)	inactive
COc1cc(/C=N/Nc2nc3c(c(=O)n(C)c(=O)n3C)n2Cc2ccccc2)ccc1OC(=O)c1ccco1	inactive
Cc1csc(Nc2ccccc2C(F)(F)F)n1	inactive
COc1ccc(C2(NC(C)=O)CCN(C(=O)c3ccco3)CC2)cc1	inactive
CCOC(=O)N1CCC(c2cc(=O)n(-c3ccccc3)[nH]2)CC1	inactive
CCOCCOc1nc2c(c(=O)n(C)c(=O)n2C)n1CCc1ccccc1	inactive
Cc1ccc(/C=C/C2=Cc3c(sc(NC(=O)CSc4n[nH]c(N)n4)c3C#N)C(C)(C)C2)o1	inactive
Cc1ccc(/C=C/C(=O)Nc2ccc([N+](=O)[O-])c(NC(=O)/C=C/c3ccc(C)o3)c2)o1	inactive
CCOC(=O)/C(=C\c1cccc(O)c1)c1nc2sc(C)c(C)c2c(=O)[nH]1	inactive
Cc1ccc(C)c(N2CCN(C(=S)Nc3ccc4nc(N5CCN(C)CC5)cc(C)c4c3)CC2)c1	inactive
COc1ccccc1Oc1ccc2c(c1)C(=O)N(c1cccc3ncccc13)C2=O	inactive
c1ccc(-c2nc(N3CCCCC3)nc3ccccc23)cc1	inactive
O=C(OCC(=O)c1ccc[nH]1)c1ccccc1	inactive
C/C(=N\NC(=O)COc1ccc(C(C)(C)C)cc1)c1ccc2c(c1)OCCO2	inactive
Cc1cc(C)c(S(=O)(=O)/N=C2/C=C(SCC(=O)O)C(=O)c3ccccc32)cc1C	inactive
Cc1ccc(NC(=S)N2CCn3cccc3C2c2cccnc2)cc1 (stereo not drawn)	inactive
O=C(COC(=O)CCCN=C1NS(=O)(=O)c2ccccc21)NC(=O)NC1CCCC1	inactive
CCOc1cc(S(=O)(=O)N2CCCCC2)ccc1F	inactive
C/C(=N\NC(=O)COc1ccc(C#N)cc1)c1ccccc1OC(F)F	inactive
CCOC(=O)c1cc2c(=O)n3ccccc3nc2n(Cc2ccco2)c1=NC(=O)c1ccccc1OC	inactive
COc1c(F)c(F)c(C(=O)Nc2ccccc2N2CCN(C(=O)C(C)C)CC2)c(F)c1F	inactive

SMILES	percent span
COc1ccc(CC(=O)Nc2ccc(-c3nc4cc(C)ccc4o3)c(O)c2)cc1OC	inactive
O=C(COC(=O)c1ccccn1)NC1CCCCC1	inactive
CC(C)C(=O)NC(c1ccccc1)c1cc([N+](=O)[O-])c2cccnc2c1O (stereo not drawn)	inactive
O=C(C1CCC(Cn2c(=S)[nH]c3ccccc3c2=O)CC1)N1CCN(c2ccccn2)CC1 (stereo not drawn)	inactive
O=C(N/N=C/c1cccc([N+](=O)[O-])c1)c1cccs1	inactive
Cc1ccc(C(=O)N/N=C2/NC(=O)CC(C(=O)Nc3ccccc3)S2)cc1 (stereo not drawn)	inactive
Cn1cccc1CC(=O)N/N=C\c1ccccc1	inactive
Cc1ccc(NS(=O)(=O)c2cc(NC(=O)c3ccc4c(c3)NC(=O)CS4)ccc2C)c(C)c1	inactive
CCC(CC)C(=O)Nc1cccc(S(=O)(=O)c2cccc(NC(=O)C(CC)CC)c2)c1	inactive
Cc1cc(NC(=O)CCCC(=O)NCc2ccccc2)no1	inactive
CNC(=O)CC1C(=O)N(Cc2ccccc2)C(=S)N1NC(=O)c1cccc(F)c1 (stereo not drawn)	inactive
O=C(CCc1ccccc1)N1CCN(c2ccccn2)CC1	inactive
CCc1nnc(NC(=O)CSc2nnc(COc3ccc(C)cc3)n2-c2ccccc2)s1	inactive
CCN(CC)c1ccc(-c2nn3c(-c4n[nH]c5c4CCC5)nnc3s2)cc1	inactive
Cc1ccc(-c2cc(-c3ccc(Cl)cc3)c(C#N)c(N)n2)o1	inactive
Cc1cc(C)c2nc3nc(C)cc(C)c3c(N)c2c1	inactive
Clc1ccc2c(N/N=C/c3ccccc3Br)ccnc2c1	inactive
Oc1ccc(NCc2ccccc2OCc2ccccc2)cc1	inactive
Cc1cc(OCc2cn3cccnc3n2)ccc1Cl	inactive
Cc1cc(C)nc(/N=c2/ssnc2Cl)c1	inactive
COc1cc(N=c2ssnc2Cl)cc(OC)c1OC	inactive
CC(C)CNC(=O)c1cccc(NC(=O)c2ccc(Cl)c([N+](=O)[O-])c2)c1	inactive
COc1ccc(OC)c(NC(=O)COC(=O)c2cc3c(s2)CCC3)c1	inactive
